Where “and” joins values, the source holds several entries; their conditions need not be identical. Identical values can stand only once. After the bases stand the sugars from the 5' end (letter, count) and the backbone: PS all phosphorothioate, else s phosphorothioate and o phosphodiester by linkage. Methylation of C is not given here. e = 2'-O-(2-methoxyethyl) (MOE); k = constrained ethyl (cEt); d = 2'-deoxy (DNA); m = 2'-O-methyl

In this data set the target is HSD17B13. The conditions noted are these: ASO, HepaRG.

In the case of CCTATGCAAATTCATA (sugars k3 d10 k3, PS), the target mRNA inhibition (1 µM) was found to be 34%. On the same count and under the same terms, as for CCTATTTGTAATATTG (sugars k3 d10 k3, PS), the figure is 0%. The same measure, in the same setting: as for CCTCAAATGAGGCGGC (sugars k3 d10 k3, PS), the figure is 47%. On the same count and under the same terms, as for CCTGAAAAGCCCTATT (sugars k3 d10 k3, PS), the figure is 0%. CCTTACTAAGGAAATT (sugars k3 d10 k3, PS): the target mRNA inhibition (1 µM) was 28%. In the case of CCTTAGAGTGAATCAT (sugars k3 d10 k3, PS), the target mRNA inhibition (1 µM) amounted to 65%. On to CCTTGTGTAGTCCTAG (sugars k3 d10 k3, PS), for which the target mRNA inhibition came out at 4% (0.02 µM); 28% (0.078 µM); 44% (0.313 µM); 67% (1 µM); 72% (1.25 µM); 85% (5 µM). Consider CGATAGATCTCTTCTC (sugars k3 d10 k3, PS), for which, for the setting “1 µM”, the target mRNA inhibition was determined as 15%. The same measure, in the same setting: the result for CGCAACAGTTTAGATT (sugars k3 d10 k3, PS) reads 57%; that for CGCACACTGAAGCCAC (sugars k3 d10 k3, PS), 56%; that for CGCTACTGTAGGCTAA (sugars k3 d10 k3, PS), 68%. Sequence CGGCAAATTTGCTGGA (sugars k3 d10 k3, PS) came in with a target mRNA inhibition (1 µM) of 29%. Under “1 µM”, CGGTCACCTTTCATAA (sugars k3 d10 k3, PS) had a target mRNA inhibition of 69%.

As to CGTTATAAGTTTCATG (sugars k3 d10 k3, PS), the target mRNA inhibition (1 µM) is 33%. As to “CGTTTGACTGCTGCTA (sugars k3 d9 k3 e1, PS)”, the target mRNA inhibition is 4% (0.02 µM); 17% (0.078 µM); 34% (0.313 µM); 75% and 50% (1 µM); 57% (1.25 µM); 66% (5 µM). For CGTTTTGGGCTAATGA (sugars k3 d10 k3, PS), the target mRNA inhibition (1 µM) turned out to be 48%. On the same count and under the same terms, as for “CTAAAATTGTCTAAAC (sugars kkdddddddddkekek, PS)”, the figure is 19%; as for “CTAAACATCTCTGGGA (sugars k3 d9 k3 e1, PS)”, 57%.

For the sequence CTAACCAATTATATGA (sugars k3 d10 k3, PS), the target mRNA inhibition (1 µM) amounted to 21%. On the same count and under the same terms, the result for CTAAGTAGTAATTCTA (sugars k3 d10 k3, PS) reads 35%. On the same count and under the same terms, the result for CTAATAACTACATGAC (sugars k3 d10 k3, PS) reads 18%. Take CTACAAGAGGTTATTT (sugars k3 d10 k3, PS): the target mRNA inhibition (1 µM) was 31%. Still for that read-out and setting: the result for CTACAGAGGAGTTTGC (sugars k3 d10 k3, PS) reads 27%. Still for that read-out and setting: as for CTACCACATACGCATG (sugars k3 d10 k3, PS), the figure is 25%; as for CTACCTCCAAATTCCC (sugars k3 d10 k3, PS), 27%. Still for that read-out and setting: as for “CTACTTGAACAGTCTT (sugars k3 d9 k3 e1, PS)”, the figure is 71%. With CTACTTGAACAGTCTT (sugars k3 d10 k3, PS), the target mRNA inhibition came out at 8% (0.02 µM); 23% (0.078 µM); 49% (0.313 µM); 80% (1 µM); 79% (1.25 µM); 97% (5 µM). With “CTACTTGAACAGTCTT (sugars kkdddddddddkekek, PS)”, under “1 µM”, the target mRNA inhibition worked out at 47%.

With CTACTTTCAAACCTTG (sugars k3 d10 k3, PS), the target mRNA inhibition (1 µM) came to 57%. Still for that read-out and setting: as for CTAGATACTCAATTTA (sugars k3 d10 k3, PS), the figure is 30%; as for CTAGGAAGTGATCCAT (sugars k3 d10 k3, PS), 66%; as for “CTAGGGAAATCTTTCA (sugars k3 d1 m1 d8 k3, PS)”, 19%. Still for that read-out and setting: as for CTAGTAATTGCATCTG (sugars k3 d10 k3, PS), the figure is 57%; as for “CTAGTGCCAAACCAAT (sugars kkdddddddddkekek, PS)”, 47%; as for “CTAGUGCCAAACCAAT (sugars k3 d1 m1 d8 k3, PS)”, 45%. On to CTATAATACATTAGCA (sugars k3 d10 k3, PS), for which, for the setting “1 µM”, the target mRNA inhibition was determined as 3%.

For CTATAGTAATCACAAG (sugars k3 d10 k3, PS), the target mRNA inhibition (1 µM) turned out to be 35%. On the same count and under the same terms, as for CTATCAACCTGCACAC (sugars k3 d10 k3, PS), the figure is 39%; as for CTATCAGAACAGTTCA (sugars k3 d10 k3, PS), 48%. The same measure, in the same setting: as for CTATCTCCCTATTTGT (sugars k3 d10 k3, PS), the figure is 15%. Turning to CTATGTAATAGGCAGT (sugars k3 d10 k3, PS), the target mRNA inhibition is, setting by setting: (0.02 µM) 18%; (0.078 µM) 20%; (0.313 µM) 63%; (1 µM) 73%; (1.25 µM) 75%; (5 µM) 86%.

As for CTATTATGCACTCTAT (sugars k3 d10 k3, PS), the target mRNA inhibition (1 µM) was determined as 32%. On the same count and under the same terms, as for CTATTGATTGGCTTAA (sugars k3 d10 k3, PS), the figure is 31%; as for CTATTGTATGAGGTCT (sugars k3 d10 k3, PS), 42%. Still for that read-out and setting: as for CTCAAATGAGGCGGCA (sugars k3 d10 k3, PS), the figure is 56%; as for CTCAAATGTCTTGGTA (sugars k3 d10 k3, PS), 29%; as for “CTCAGGCTGTAAGAGT (sugars k3 d1 m1 d8 k3, PS)”, 46%. Same read-out and setting: the result for “CTCAGGCTGTAAGAGT (sugars k3 d9 k3 e1, PS)” reads 21%; that for CTCCATCATCGATGGA (sugars k3 d10 k3, PS), 0%. Regarding CTCCGTGTAGTTTGGT (sugars k3 d10 k3, PS), the target mRNA inhibition (1 µM) is 28%. Still for that read-out and setting: the result for CTCTAAATACCCTTGG (sugars k3 d10 k3, PS) reads 7%; that for CTCTAATGTTTCTTGA (sugars k3 d10 k3, PS), 53%. The same measure, in the same setting: as for CTCTATAAAATCAATC (sugars k3 d10 k3, PS), the figure is 0%. For the setting “1 µM”, CTCTGGGACCAAGGAT (sugars k3 d10 k3, PS) came in with a target mRNA inhibition of 51%. The sequence “CTCTTAGCTGTGCACT (sugars kkdddddddddkekek, PS)” had a target mRNA inhibition (1 µM) of 56%. Take CTCTTTTTATAGACTG (sugars k3 d10 k3, PS): the target mRNA inhibition (1 µM) is 63%. “CTGAAATTGATACACC (sugars k3 d9 k3 e1, PS)”: the target mRNA inhibition reads like this: (0.02 µM) 0%; (0.078 µM) 17%; (0.313 µM) 51%; (1 µM) 75%; (1.25 µM) 61%; (5 µM) 81%. In turn, CTGAGTAAACGACTCT (sugars k3 d10 k3, PS) had a target mRNA inhibition (1 µM) of 33%. Consider CTGATTAATCTTGATG (sugars k3 d10 k3, PS), for which the target mRNA inhibition (1 µM) is 32%.

With CTGATTACAGCATCAA (sugars k3 d10 k3, PS), for the setting “1 µM”, the target mRNA inhibition worked out at 40%. Same read-out and setting: the result for CTGATTTAGAGAGCGA (sugars k3 d10 k3, PS) reads 61%; that for CTGCAAAGTTAATAGG (sugars k3 d10 k3, PS), 57%. Same read-out and setting: as for “CTGCATTAATGCCACC (sugars k3 d1 m1 d8 k3, PS)”, the figure is 52%. With CTGCATTAATGCCACC (sugars k3 d10 k3, PS), the target mRNA inhibition is 0% (0.02 µM); 0% (0.078 µM); 17% (0.313 µM); 67% (1 µM); 40% (1.25 µM); 81% (5 µM). As for CTGCCAGATTGCACAA (sugars k3 d10 k3, PS), for the setting “1 µM”, the target mRNA inhibition was 44%. Still for that read-out and setting: as for CTGCCCTAGATTCTAC (sugars k3 d10 k3, PS), the figure is 33%. CTGCGCACATATTTTA (sugars k3 d10 k3, PS) registered a target mRNA inhibition (0.02 µM) of 0%; a target mRNA inhibition (0.078 µM) of 0%; a target mRNA inhibition (0.313 µM) of 7%; a target mRNA inhibition (1 µM) of 92%; a target mRNA inhibition (1.25 µM) of 52%; a target mRNA inhibition (5 µM) of 74%. Sequence “CTGCTAGTGCCAAACC (sugars k3 d9 k3 e1, PS)” had a target mRNA inhibition (1 µM) of 67%.

Consider CTGCTAGTGCCAAACC (sugars k3 d10 k3, PS), for which the target mRNA inhibition (1 µM) is 74%.

For the sequence CTGCTGAAACTTGATC (sugars k3 d10 k3, PS), under “1 µM”, the target mRNA inhibition is 50%. Still for that read-out and setting: as for CTGGTAAAGGTAAGGG (sugars k3 d10 k3, PS), the figure is 58%; as for CTGTAATTGGCTCTTG (sugars k3 d10 k3, PS), 28%.

In the case of CTGTAGGCTAAACCCT (sugars k3 d10 k3, PS), the target mRNA inhibition (1 µM) is 47%. Turning to CTGTAGGTTTTGCTTC (sugars k3 d10 k3, PS), where the note is “1 µM”, the target mRNA inhibition is 27%. Same read-out and setting: as for CTGTGCACTCATTCTG (sugars k3 d10 k3, PS), the figure is 51%. For the sequence CTGTGTTAGCTTTAAT (sugars k3 d10 k3, PS), the target mRNA inhibition by setting is: (0.02 µM) 9%; (0.078 µM) 0%; (0.313 µM) 28%; (1 µM) 67%; (1.25 µM) 77%; (5 µM) 92%.

Regarding CTTAACAAACCTCCAC (sugars k3 d10 k3, PS), the target mRNA inhibition (1 µM) amounted to 3%.

On to “CTTAAGATACCCAGGT (sugars k3 d1 m1 d8 k3, PS)”, for which, under “1 µM”, the target mRNA inhibition was found to be 50%. Still for that read-out and setting: as for CTTAAGATACCCAGGT (sugars k3 d10 k3, PS), the figure is 36%.

For the origin of these results see the OligoGym collection.
